US20260232767A1, “INTERLEUKIN-23 RECEPTOR ANTAGONIST PEPTIDES FOR USE IN THE TREATMENT OF PSORIASIS” (Janssen Pharmaceutica NV, priority 2023, published 2026)

Tested on: subjects with moderate-to-severe plaque psoriasis
Assay: Safety, adverse events, Example 2 through Week 56
Type: in vivo, human
Source text: The LTE safety analysis was based on randomized participants in Example who entered the present long-term extension study and received at least one dose of study intervention (including a partial dose) during the study period.

[1] = Placebo → 100 mg QD after crossover, through Week 56
[2] = Placebo → 100 mg QD, Week 16 through Week 56
[3] = Placebo → 100 mg QD, LTE Safety analysis set

## CC(=O)NCCCC[C@@H]1NC(=O)[C@H](Cc2c[nH]c3c(C)cccc23)NC(=O)[C@H]([C@@H](C)O)NC(=O)[C@H](CC(N)=O)NC(=O)[C@@H](NC(C)=O)C(C)(C)SSC(C)(C)[C@@H](C(=O)N[C@@H](Cc2ccc(OCCN)cc2)C(=O)N[C@@H](Cc2ccc3ccccc3c2)C(=O)NC2(C(=O)N[C@@H](CCC(=O)O)C(=O)N[C@@H](CC(N)=O)C(=O)N[C@@H](Cc3cccnc3)C(=O)N(C)CC(N)=O)CCOCC2)NC1=O [IL-23 receptor antagonist peptide, Ac-[Pen]*-N-T-[W(7-Me)]-[Lys(Ac)]-[Pen]*-Phe[4-(2-aminoethoxy)]-[2-Nal]-[THP]-E-N-[3-Pal]-Sarc-NH2 (*[Pen]-[Pen]* formdisulfidebond)]
Combined, through Week 56
  Coronary artery disease: % of subjects: (0.4%)
  Coronary artery disease: number of subjects: 1
  Cough: % of subjects: (3.2%)
  Cough: number of subjects: 8
  Decreased appetite: % of subjects: (0.4%)
  Decreased appetite: number of subjects: 1
  Depression: % of subjects: (0.8%)
  Depression: number of subjects: 2
  Dermal cyst: % of subjects: (0.4%)
  Dermal cyst: number of subjects: 1
  Dermatitis acneiform: % of subjects: (0.4%)
  Dermatitis acneiform: number of subjects: 1
  Dermatitis contact: % of subjects: (1.6%)
  Dermatitis contact: number of subjects: 4
  Diabetes mellitus: % of subjects: (0.8%)
  Diabetes mellitus: number of subjects: 2
  Diffuse alopecia: % of subjects: (0.4%)
  Diffuse alopecia: number of subjects: 1
  Dysuria: % of subjects: (0.4%)
  Dysuria: number of subjects: 1
  Ear and labyrinth disorders: % of subjects: (1.2%)
  Ear and labyrinth disorders: number of subjects: 3
  Endocrine disorders: % of subjects: (0.4%)
  Endocrine disorders: number of subjects: 1
  Eye disorders: % of subjects: (1.2%)
  Eye disorders: number of subjects: 3
  Eyelid skin dryness: % of subjects: (0.4%)
  Eyelid skin dryness: number of subjects: 1
  Fatigue: % of subjects: (1.6%)
  Fatigue: number of subjects: 4
  General disorders and administration site conditions: % of subjects: (5.3%)
  General disorders and administration site conditions: number of subjects: 13
  Goiter: % of subjects: (0.4%)
  Goiter: number of subjects: 1
  Haemochromatosis: % of subjects: (0.4%)
  Haemochromatosis: number of subjects: 1
  Hand dermatitis: % of subjects: (0.4%)
  Hand dermatitis: number of subjects: 1
  Hematuria: % of subjects: (0.8%)
  Hematuria: number of subjects: 2
  Hepatobiliary disorders: % of subjects: (1.2%)
  Hepatobiliary disorders: number of subjects: 3
  Hypercholesterolemia: % of subjects: (0.4%)
  Hypercholesterolemia: number of subjects: 1
  Hyperglycemia: % of subjects: (1.6%)
  Hyperglycemia: number of subjects: 4
  Hyperlipidemia: % of subjects: (0.4%)
  Hyperlipidemia: number of subjects: 1
  Hypertension: % of subjects: (2.8%)
  Hypertension: number of subjects: 7
  Hypertransaminasemia: % of subjects: (0.4%)
  Hypertransaminasemia: number of subjects: 1
  Hypertriglyceridemia: % of subjects: (0.4%)
  Hypertriglyceridemia: number of subjects: 1
  Hypoacusis: % of subjects: (0.4%)
  Hypoacusis: number of subjects: 1
  Immune system disorders: % of subjects: (0.8%)
  Immune system disorders: number of subjects: 2
  Influenza like illness: % of subjects: (0.4%)
  Influenza like illness: number of subjects: 1
  Insomnia: % of subjects: (0.8%)
  Insomnia: number of subjects: 2
  Intertrigo: % of subjects: (0.4%)
  Intertrigo: number of subjects: 1
  Ketonuria: % of subjects: (0.4%)
  Ketonuria: number of subjects: 1
  Leukocyturia: % of subjects: (0.4%)
  Leukocyturia: number of subjects: 1
  Leukopenia: % of subjects: (0.4%)
  Leukopenia: number of subjects: 1
  Libido decreased: % of subjects: (0.4%)
  Libido decreased: number of subjects: 1
  Liver disorder: number of subjects: 0
  Lymphopenia: % of subjects: (0.8%)
  Lymphopenia: number of subjects: 2
  Menopause: % of subjects: (0.4%)
  Menopause: number of subjects: 1
  Metabolism and nutrition disorders: % of subjects: (4.5%)
  Metabolism and nutrition disorders: number of subjects: 11
  Neoplasms benign, malignant and unspecified (incl cysts and polyps): % of subjects: (2.4%)
  Neoplasms benign, malignant and unspecified (incl cysts and polyps): number of subjects: 6
  Nephrolithiasis: % of subjects: (0.4%)
  Nephrolithiasis: number of subjects: 1
  Neutropenia: % of subjects: (0.8%)
  Neutropenia: number of subjects: 2
  Night sweats: % of subjects: (0.4%)
  Night sweats: number of subjects: 1
  Non-cardiac chest pain: % of subjects: (0.4%)
  Non-cardiac chest pain: number of subjects: 1
  Ocular cyst: % of subjects: (0.4%)
  Ocular cyst: number of subjects: 1
  Oedema peripheral: % of subjects: (1.6%)
  Oedema peripheral: number of subjects: 4
  Oropharyngeal pain: % of subjects: (0.8%)
  Oropharyngeal pain: number of subjects: 2
  Procedural pain: % of subjects: (0.4%)
  Procedural pain: number of subjects: 1
  Productive cough: % of subjects: (0.4%)
  Productive cough: number of subjects: 1
  Proteinuria: % of subjects: (0.4%)
  Proteinuria: number of subjects: 1
  Pruritus: % of subjects: (0.8%)
  Pruritus: number of subjects: 2
  Psoriasis: % of subjects: (1.2%)
  Psoriasis: number of subjects: 3
  Psychiatric disorders: % of subjects: (2.0%)
  Psychiatric disorders: number of subjects: 5
  Pyrexia: % of subjects: (0.8%)
  Pyrexia: number of subjects: 2
  Rash pruritic: number of subjects: 0
  Renal and urinary disorders: % of subjects: (3.2%)
  Renal and urinary disorders: number of subjects: 8
  Renal mass: % of subjects: (0.4%)
  Renal mass: number of subjects: 1
  Respiratory, thoracic and mediastinal disorders: % of subjects: (5.3%)
  Respiratory, thoracic and mediastinal disorders: number of subjects: 13
  Retinal vein occlusion: % of subjects: (0.4%)
  Retinal vein occlusion: number of subjects: 1
  Rhinorrhoea: % of subjects: (0.4%)
  Rhinorrhoea: number of subjects: 1
  Seasonal allergy: % of subjects: (0.8%)
  Seasonal allergy: number of subjects: 2
  Skin and subcutaneous tissue disorders: % of subjects: (6.5%)
  Skin and subcutaneous tissue disorders: number of subjects: 16
  Skin laceration: % of subjects: (0.4%)
  Skin laceration: number of subjects: 1
  Skin papilloma: % of subjects: (0.8%)
  Skin papilloma: number of subjects: 2
  Social circumstances: % of subjects: (0.4%)
  Social circumstances: number of subjects: 1
  Steatohepatitis: % of subjects: (0.4%)
  Steatohepatitis: number of subjects: 1
  Suicide attempt: % of subjects: (0.4%)
  Suicide attempt: number of subjects: 1
  Sunburn: % of subjects: (0.4%)
  Sunburn: number of subjects: 1
  Thrombocytopenia: % of subjects: (0.4%)
  Thrombocytopenia: number of subjects: 1
  Thrombocytosis: % of subjects: (0.4%)
  Thrombocytosis: number of subjects: 1
  Tonsillar hypertrophy: % of subjects: (0.4%)
  Tonsillar hypertrophy: number of subjects: 1
  Tooth fracture: % of subjects: (0.4%)
  Tooth fracture: number of subjects: 1
  Type 2 diabetes mellitus: % of subjects: (0.4%)
  Type 2 diabetes mellitus: number of subjects: 1
  Urinary tract disorder: % of subjects: (0.4%)
  Urinary tract disorder: number of subjects: 1
  Uterine leiomyoma: % of subjects: (0.4%)
  Uterine leiomyoma: number of subjects: 1
  Vascular disorders: % of subjects: (2.8%)
  Vascular disorders: number of subjects: 7
  Ventricular dysfunction: % of subjects: (0.4%)
  Ventricular dysfunction: number of subjects: 1
  Vertigo: % of subjects: (0.8%)
  Vertigo: number of subjects: 2
  Vitamin D deficiency: % of subjects: (0.4%)
  Vitamin D deficiency: number of subjects: 1
LTE study period
  Deaths: no deaths
[1]
  Subjects with 1 or more treatment-emergent adverse events leading to discontinuation of study agent: 0
  Subjects with AE leading to discontinuation: Abdominal discomfort: 0
  Subjects with AE leading to discontinuation: Abdominal pain: 0
  Subjects with AE leading to discontinuation: Alanine aminotransferase increased: 0
  Subjects with AE leading to discontinuation: Aspartate aminotransferase increased: 0
  Subjects with AE leading to discontinuation: Asthenia: 0
  Subjects with AE leading to discontinuation: Chills: 0
  Subjects with AE leading to discontinuation: Ear and labyrinth disorders: 0
  Subjects with AE leading to discontinuation: Gamma-glutamyltransferase increased: 0
  Subjects with AE leading to discontinuation: Gastrointestinal disorders: 0
  Subjects with AE leading to discontinuation: General disorders and administration site conditions: 0
  Subjects with AE leading to discontinuation: Headache: 0
  Subjects with AE leading to discontinuation: Insomnia: 0
  Subjects with AE leading to discontinuation: Investigations: 0
  Subjects with AE leading to discontinuation: Nausea: 0
  Subjects with AE leading to discontinuation: Nervous system disorders: 0
  Subjects with AE leading to discontinuation: Proctalgia: 0
  Subjects with AE leading to discontinuation: Psoriasis: 0
  Subjects with AE leading to discontinuation: Psychiatric disorders: 0
  Subjects with AE leading to discontinuation: Skin and subcutaneous tissue disorders: 0
  Subjects with AE leading to discontinuation: Suicide attempt: 0
  Subjects with AE leading to discontinuation: Transaminases increased: 0
  Subjects with AE leading to discontinuation: Vertigo: 0
  Subjects with AE leading to discontinuation: Vomiting: 0
  Subjects with AE leading to discontinuation: Weight increased: 0
  Subjects with treatment-emergent AE: Cough: 0
  Subjects with treatment-emergent AE: Headache: 0
  Subjects with treatment-emergent AE: Nasopharyngitis: 9
  Subjects with treatment-emergent serious AE: COVID-19: 0
  Subjects with treatment-emergent serious AE: Cardiac disorders: 0
  Subjects with treatment-emergent serious AE: Coronary artery disease: 0
  Subjects with treatment-emergent serious AE: Diverticulitis: 0
  Subjects with treatment-emergent serious AE: Foot deformity: 0
  Subjects with treatment-emergent serious AE: General disorders and administration site conditions: 0
  Subjects with treatment-emergent serious AE: Infected cyst: 0
  Subjects with treatment-emergent serious AE: Infections and infestations: 0
  Subjects with treatment-emergent serious AE: Injury, poisoning and procedural complications: 0
  Subjects with treatment-emergent serious AE: Intervertebral disc protrusion: 0
  Subjects with treatment-emergent serious AE: Ligament injury: 0
  Subjects with treatment-emergent serious AE: Musculoskeletal and connective tissue disorders: 0
  Subjects with treatment-emergent serious AE: Neoplasms benign, malignant and unspecified (incl cysts and polyps): 0
  Subjects with treatment-emergent serious AE: Non-cardiac chest pain: 0
  Subjects with treatment-emergent serious AE: Psychiatric disorders: 0
  Subjects with treatment-emergent serious AE: Respiratory, thoracic and mediastinal disorders: 0
  Subjects with treatment-emergent serious AE: Suicide attempt: 0
  Subjects with treatment-emergent serious AE: Tonsillar hypertrophy: 0
  Subjects with treatment-emergent serious AE: Uterine leiomyoma: 0
  Subjects with treatment-emergent serious AE: Ventricular dysfunction: 0
[2]
  Number of subjects with treatment-emergent AE: Cholelithiasis: 0
  Number of subjects with treatment-emergent AE: Ear and labyrinth disorders: 0
  Number of subjects with treatment-emergent AE: Endocrine disorders: 0
  Number of subjects with treatment-emergent AE: Eye disorders: 2
  Number of subjects with treatment-emergent AE: Eyelid skin dryness: 0
  Number of subjects with treatment-emergent AE: Goiter: 0
  Number of subjects with treatment-emergent AE: Hepatobiliary disorders: 1
  Number of subjects with treatment-emergent AE: Hypertransaminasemia: 1
  Number of subjects with treatment-emergent AE: Immune system disorders: 0
  Number of subjects with treatment-emergent AE: Insomnia: 0
  Number of subjects with treatment-emergent AE: Ocular cyst: 1
  Number of subjects with treatment-emergent AE: Psychiatric disorders: 0
  Number of subjects with treatment-emergent AE: Retinal vein occlusion: 1
  Number of subjects with treatment-emergent AE: Seasonal allergy: 0
  Number of subjects with treatment-emergent AE: Vertigo: 0
  Subjects with treatment-emergent AE: Eye disorders (%): (5.7%)
  Subjects with treatment-emergent AE: Hepatobiliary disorders (%): (2.9%)
  Subjects with treatment-emergent AE: Hypertransaminasemia (%): (2.9%)
  Subjects with treatment-emergent AE: Ocular cyst (%): (2.9%)
  Subjects with treatment-emergent AE: Retinal vein occlusion (%): (2.9%)
[3]
  Subjects who discontinued study agent because of 1 or more adverse events: 0
  Subjects with 1 or more Serious Infections and infestations: 0
  Subjects with adverse event: Headache: 0
  Subjects with adverse event: Meniscus injury: 0
  Subjects with adverse event: Nasopharyngitis: 9
  Subjects with adverse event: Sinusitis: 0
  Subjects with adverse event: Vomiting: 0
  Subjects with serious adverse event: Coronary artery disease: 0
  Subjects with serious adverse event: Diverticulitis: 0
  Subjects with serious adverse event: Foot deformity: 0
  Subjects with serious adverse event: Intervertebral disc protrusion: 0
  Subjects with serious adverse event: Ligament injury: 0
  Subjects with serious adverse event: Non-cardiac chest pain: 0
  Subjects with serious adverse event: Tonsillar hypertrophy: 0
  Subjects with serious adverse event: Uterine leiomyoma: 0
